Values after ≈ are worked out from the molar mass of the structure shown. Where a name gives a salt, the structure may show the parent alone. Read-outs that look alike come from different tables or passages of the source.
Columns and labels:
[1] = test system: Staphylococcus aureus (ATCC25923); assay: MIC, broth microdilution (CLSI), Staphylococcus aureus ATCC25923; settings: ATCC25923, read-out: S. aureus ("Clinical") MIC
[2] = test system: E. coli RNase P RNA, M1 RNA; assay: Inhibition of bacterial RNase P activity, IC50 determination (cleavage of pATSerUG by M1 RNA); format: biochemical; settings: NI = No inhibition
[3] = test system: Staphylococcus aureus subsp. aureus (ATCC29213); assay: MIC, broth microdilution (CLSI), Staphylococcus aureus subsp. aureus ATCC29213; format: cell-based; settings: ATCC29213, Table 15, read-out: S. aureus ("wound") (MIC)
[4] = test system: Escherichia coli (ATCC25922); assay: MIC, broth microdilution (CLSI), Escherichia coli ATCC25922
[5] = ATCC25922, read-out: E. coli MIC, Table 15, NI = No inhibition
[6] = ATCC25922, read-out: E. coli MIC

Row | SMILES | MIC [1] [µg/mL] | IC50 [2] [µM] | MIC [3] [µg/mL] | MIC [4, 5] [µg/mL] | MIC [4, 6] [µg/mL]
1 | OCC1CCC(Nc2cc(C(F)(F)F)cc3c2Nc2ccccc2S3)CC1 (stereo not shown) [compound 192, (4-((3-(trifluoromethyl)-10H-phenothiazin-1-yl)amino)cyclohexyl) methanol] | 6 (≈ 15.2 µM) |  |  |  | 
2 | Cc1c(-c2ccc3c(c2)Sc2ccccc2N3CCCN(C)C)[nH]c2ccccc12 [compound 198, N,N-dimethyl-3-(3-(3-methyl-1H-indol-2-yl)-10H-phenothiazin-10-yl)propan-1-amine] | 3 (≈ 7.25 µM) |  |  |  | 
3 | CCOC(=O)c1ccc2c(c1)Sc1cc(-c3cc4ccccc4[nH]3)ccc1N2CCCN [compound 258, ethyl 10-(3-aminopropyl)-7-(1H-indol-2-yl)-10H-phenothiazine-3-carboxylate] |  | 24 | 2 (≈ 4.51 µM) | 128 (≈ 289 µM) | 
4 | NCCCN1c2ccc(N3CCN(CCN)CC3)cc2Sc2cc(C(F)(F)F)ccc21 [compound 266, 3-(3-(4-(2-aminoethyl)piperazin-1-yl)-7-(trifluoromethyl)-10H-phenothiazin-10-yl)propan-1-amine hydrochloride] |  | 31 | 16 |  | 64
5 | NCCN1CCC(Nc2cc(C(F)(F)F)cc3c2Nc2ncccc2S3)CC1 [compound 268, N-(1-(2-aminoethyl)piperidin-4-yl)-7-(trifluoromethyl)-10H-benzo[b] pyrido[2,3-e] [1,4]thiazin-9-amine] |  | 31 | 8 (≈ 19.5 µM) | 4 (≈ 9.77 µM) | 
6 | N#Cc1ccc2c(c1)Sc1cc(N3CCN(CCN)CC3)ccc1N2CCCN [compound 292, 7-(4-(2-aminoethyl)piperazin-1-yl)-10-(3-aminopropyl)-10H-phenothiazine-3-carbonitrile trifluoro acetic acid] |  | 140 | 128 (≈ 313 µM) |  | > 128
7 | Cl.Cl.NCCN1CCC(Nc2cc(C(F)(F)F)cc3c2Nc2ccc(C(=O)N4CCCC4)cc2S3)CC1 [compound 293, (9-((1-(2-aminoethyl)piperidin-4-yl)amino)-7-(trifluoromethyl)-10H-phenothiazin-3-yl)(pyrrolidin-1-yl)methanone hydrochloride] |  | 62 | 8 | 16 | 
8 | Cl.NC1CCCC(C(=O)Nc2cc(C(F)(F)F)cc3c2Nc2ccc(N4CCCC4)cc2S3)C1 (stereo not shown) [compound 294, 3-amino-N-(7-(pyrrolidin-1-yl)-3-(trifluoromethyl)-10H-phenothiazin-1-yl)cyclohexane-1-carboxamide hydrochloride] |  | 2.4 | 8 | 64 | 
9 | CN(C)C1CCN(c2ccc3c(c2)Sc2cc(C(F)(F)F)cc(NC4CCN(CCN)CC4)c2N3)CC1.Cl.Cl [compound 295, N-(1-(2-aminoethyl)piperidin-4-yl)-7-(4-(dimethylamino)piperidin-1-yl)-3-(trifluoromethyl)-10H-phenothiazin-1-amine hydrochloride] |  | 21 | 32 | 128 | 
10 | Cl.NCCNCCCNc1cc(C(F)(F)F)cc2c1Nc1ccccc1S2 [compound 297, N1-(2-aminoethyl)-N3-(3-(trifluoromethyl)-10H-phenothiazin-1-yl)propane-1,3-diamine hydrochloride] |  | 43 | 16 | 32 | 
11 | Cl.NCCNCCCNc1cc(C(F)(F)F)cc2c1Nc1ccc(Br)cc1S2 [compound 298, N1-(2-aminoethyl)-N3-(7-bromo-3-(trifluoromethyl)-10H-phenothiazin-1-yl)propane-1,3-diamine] |  | 14 | 8 | 8 | 
12 | CN(C)C1CCN(c2ccc3c(c2)Sc2cc(C(F)(F)F)cc(NC4CCN(CCN)CC4)c2N3)C1.Cl.Cl (stereo not shown) [compound 299, N-(1-(2-aminoethyl)piperidin-4-yl)-7-(3-(dimethylamino)pyrrolidin-1-yl)-3-(trifluoromethyl)-10H-phenothiazin-1-amine hydrochloride] |  | 6.8 | 8 | 32 | 
13 | Cl.Cl.NCCN1CCC(Nc2cc(C(F)(F)F)cc3c2Nc2ccc(N4CCC(F)(F)C4)cc2S3)CC1 [compound 303, N-(1-(2-aminoethyl)piperidin-4-yl)-7-(3,3-difluoro-pyrrolidin-1-yl)-3-(trifluoromethyl)-10H-phenothiazin-1-amine hydrochloride] |  | 9.7 | 8 | 32 | 
14 | CC1CCN(c2ccc3c(c2)Sc2cc(C(F)(F)F)cc(NC4CCN(CCN)CC4)c2N3)C1.Cl.Cl (stereo not shown) [compound 311, N-(1-(2-aminoethyl)piperidin-4-yl)-7-(3-methyl-pyrrolidin-1-yl)-3-(trifluoromethyl)-10H-phenothiazin-1-amine hydrochloride] |  | 2.5 | 2 | 8 | 
15 | Cl.Cl.NC1CCCC(C(=O)Nc2cc(C(F)(F)F)cc3c2Nc2ccc(Br)cc2S3)C1 (stereo not shown) [compound 312, 3-amino-N-(7-bromo-3-(trifluoromethyl)-10H-phenothiazin-1-yl)cyclohexane-1-carboxamide hydrochloride] |  | 12 | 2 | 16 | 
16 | CC1CCCCN1c1ccc2c(c1)Sc1cc(C(F)(F)F)cc(NC3CCN(CCN)CC3)c1N2.Cl.Cl.Cl (stereo not shown) [compound 314, N-(1-(2-aminoethyl)piperidin-4-yl)-7-(2-methyl-piperidin-1-yl)-3-(trifluoromethyl)-10H-phenothiazin-1-amine hydrochloride] |  | 30 | 4 | 8 | 
17 | Cl.NCCN1CCC(Nc2cc(C(F)(F)F)cc3c2Nc2ccc(N4CC5(CCC5)C4)cc2S3)CC1 [compound 325, N-(1-(2-aminoethyl)piperidin-4-yl)-7-(2-azaspiro [3.3]heptan-2-yl)-3-(trifluoromethyl)-10H-phenothiazin-1-amine hydrochloride] |  | 6.4 | 2 | 8 | 
18 | Cl.Cl.NCCN(CCN)CCN1CCC(Nc2cc(C(F)(F)F)cc3c2Nc2ccc(Br)cc2S3)CC1 [compound 331, N1-(2-aminoethyl)-N1-(2-(4-((7-bromo-3-(trifluoromethyl)-10H-phenothiazin-1-yl)amino)piperidin-1-yl)ethyl)ethane-1,2-diamine hydrochloride] |  | 5.1 | 4 | 8 | 
19 | CC1(C)CCN(c2ccc3c(c2)Sc2cc(C(F)(F)F)cc(NC4CCN(CCN)CC4)c2N3)C1.Cl [compound 332, N-(1-(2-aminoethyl)piperidin-4-yl)-7-(3,3-dimethyl-pyrrolidin-1-yl)-3-(trifluoromethyl)-10H-phenothiazin-1-amine hydrochloride] |  | 4.1 | 1 | 8 | 
20 | CC1CCN(c2ccc3c(c2)Sc2cc(C(F)(F)F)cc(NC4CCN(CCN)CC4)c2N3)C1C.Cl (stereo not shown) [compound 336, N-(1-(2-aminoethyl)piperidin-4-yl)-7-(2,3-dimethyl-pyrrolidin-1-yl)-3-(trifluoromethyl)-10H-phenothiazin-1-amine hydrochloride] |  | 19 | 1 | 4 | 
21 | CC1CC(C)N1c1ccc2c(c1)Sc1cc(C(F)(F)F)cc(NC3CCN(CCN)CC3)c1N2.Cl (stereo not shown) [compound 337, N-(1-(2-aminoethyl)piperidin-4-yl)-7-(2,4-dimethyl-azetidin-1-yl)-3-(trifluoromethyl)-10H-phenothiazin-1-amine hydrochloride] |  | 26 | 2 | 4 | 
22 | NCCNCCCNc1cc(C(F)(F)F)cc2c1Nc1ccc(C3CCCC3)cc1S2 [compound 353, N1-(2-aminoethyl)-N3-(7-cyclopentyl-3-(trifluoromethyl)-10H-phenothiazin-1-yl) propane-1,3-diamine hydrochloride] |  |  | 2 |  | 8
23 | Cl.Cl.NCCN1CCC(Nc2cc(C(F)(F)F)cc3c2Nc2ccc(C4CCCC4)cc2S3)CC1 [compound 354, N-(1-(2-aminoethyl)piperidin-4-yl)-7-cyclopentyl-3-(trifluoromethyl)-10H-phenothiazin-1-amine hydrochloride] |  |  | 1 | 8 | 
24 | Cl.NCCNCCCNc1cc(C(F)(F)F)cc2c1Nc1cc(Br)ccc1S2 [compound 355, N1-(2-aminoethyl)-N3-(8-bromo-3-(trifluoromethyl)-10H-phenothiazin-1-yl)propane-1,3-diamine hydrochloride] |  |  | 4 | 8 | 
25 | Cl.NCCN1CCC(Nc2cc(C(F)(F)F)cc3c2Nc2cc(N4CCCC4)ccc2S3)CC1 [compound 356, N-(1-(2-aminoethyl)piperidin-4-yl)-8-(pyrrolidin-1-yl)-3-(trifluoromethyl)-10H-phenothiazin-1-amine hydrochloride] |  |  | 16 | 32 | 
26 | CC1CC(C)CN(c2ccc3c(c2)Nc2c(NC4CCN(CCN)CC4)cc(C(F)(F)F)cc2S3)C1.Cl (stereo not shown) [compound 357, N-(1-(2-aminoethyl)piperidin-4-yl)-8-(3,5-dimethyl-piperidin-1-yl)-3-(trifluoromethyl)-10H-phenothiazin-1-amine hydrochloride] |  |  | 16 | 64 | 
27 | Cl.NCCNCCCNc1cc(C(F)(F)F)cc2c1Nc1ccc(C3=CCCC3)cc1S2 [compound 358, N1-(2-aminoethyl)-N3-(7-(cyclopent-1-en-1-yl)-3-(trifluoromethyl)-10H-phenothiazin-1-yl) propane-1,3-diaminehydrochloride] |  |  | 16 | 16 | 
28 | Cl.NCCN1CCC(Nc2cc(C(F)(F)F)cc3c2Nc2ccc(C4=CCCC4)cc2S3)CC1 [compound 359, N-(1-(2-aminoethyl)piperidin-4-yl)-7-(cyclopent-1-en-1-yl)-3-(trifluoromethyl)-10H-phenothiazin-1-amine hydrochloride] |  |  | 16 | 64 | 
